Common to all, as to assay: isothermal titration calorimetry
Type in all cases: binding

In one assay the target is T1, CERK6 (Lotus japonicus, UniProt D3KTZ6).
T1 sequence (D3KTZ6 26-223): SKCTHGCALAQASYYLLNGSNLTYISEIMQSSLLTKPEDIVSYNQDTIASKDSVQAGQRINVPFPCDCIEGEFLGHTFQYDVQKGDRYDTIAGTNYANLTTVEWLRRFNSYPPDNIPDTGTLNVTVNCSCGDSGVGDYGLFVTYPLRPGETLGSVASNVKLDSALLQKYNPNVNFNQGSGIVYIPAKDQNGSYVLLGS
As to conditions: read-out: affinity; ectodomain; crystal structure: CO5 in LysM1 and LysM2.

The next assay deals with T2, LYR4 (Medicago truncatula, UniProt G7K7K0).
T2 sequence (G7K7K0 24-242): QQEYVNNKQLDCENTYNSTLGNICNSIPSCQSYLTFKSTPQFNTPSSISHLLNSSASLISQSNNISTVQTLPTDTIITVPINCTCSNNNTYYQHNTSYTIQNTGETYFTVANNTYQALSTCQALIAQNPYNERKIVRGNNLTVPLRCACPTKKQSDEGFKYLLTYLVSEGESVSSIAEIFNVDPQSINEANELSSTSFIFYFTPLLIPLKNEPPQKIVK
Particulars: ectodomain.

For another assay, the target named is T3, MtCERK1 (Medicago truncatula, UniProt G7J6P5).
T3 sequence (G7J6P5 30-232): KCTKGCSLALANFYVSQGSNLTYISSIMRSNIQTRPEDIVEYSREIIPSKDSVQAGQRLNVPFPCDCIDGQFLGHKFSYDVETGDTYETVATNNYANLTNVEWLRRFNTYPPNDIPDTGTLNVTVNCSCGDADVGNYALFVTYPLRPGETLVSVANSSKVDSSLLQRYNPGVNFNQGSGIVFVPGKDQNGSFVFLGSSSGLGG
Particulars: read-out: affinity; ectodomain.

Assay [1] deals with T4, CHIP13 (Lotus japonicus, UniProt D3KU00).
T4 sequence (D3KU00 33-253): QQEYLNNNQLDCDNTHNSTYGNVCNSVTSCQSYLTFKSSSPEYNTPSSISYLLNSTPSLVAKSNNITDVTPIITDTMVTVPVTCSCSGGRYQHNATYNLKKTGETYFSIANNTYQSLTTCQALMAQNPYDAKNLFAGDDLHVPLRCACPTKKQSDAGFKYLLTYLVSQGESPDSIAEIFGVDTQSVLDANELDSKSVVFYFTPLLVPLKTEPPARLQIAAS
Particulars: ectodomain.

For assay [2], the target named is T5, CHIP13 (Lotus japonicus, UniProt D3KU00, Y232A/F233A).
T5 sequence (D3KU00 33-253 Y232A/F233A): T4 sequence (D3KU00 33-253) with Y200A, F201A
As to conditions: ectodomain variant.

Drawing on publication doi:10.1101/2025.07.09.663820v1 (biorxiv, 2025), this text covers Kd for two compounds.

Substitutions are numbered along the chain they refer to.

`CC(=O)N[C@H]1[C@H](O[C@H]2[C@H](O)[C@@H](NC(C)=O)[C@H](O[C@H]3[C@H](O)[C@@H](NC(C)=O)C(O)O[C@@H]3CO)O[C@@H]2CO)O[C@H](CO)[C@@H](O[C@@H]2O[C@H](CO)[C@@H](O[C@@H]3O[C@H](CO)[C@@H](O)[C@H](O)[C@H]3NC(C)=O)[C@H](O)[C@H]2NC(C)=O)[C@@H]1O` (stereo partly shown) [CO5, penta-N-acetyl-chitopentaose]: the Kd on CERK6 was determined as 2800 µM; at LYR4 it was 96 µM; on MtCERK1, 729 µM; on CHIP13 [1] it was 1270 µM.
In the case of `CC(=O)N[C@H]1[C@H](O[C@H]2[C@H](O)[C@@H](NC(C)=O)[C@H](O[C@H]3[C@H](O)[C@@H](NC(C)=O)[C@H](O[C@H]4[C@H](O)[C@@H](NC(C)=O)C(O)O[C@@H]4CO)O[C@@H]3CO)O[C@@H]2CO)O[C@H](CO)[C@@H](O[C@@H]2O[C@H](CO)[C@@H](O[C@@H]3O[C@H](CO)[C@@H](O[C@@H]4O[C@H](CO)[C@@H](O[C@@H]5O[C@H](CO)[C@@H](O)[C@H](O)[C@H]5NC(C)=O)[C@H](O)[C@H]4NC(C)=O)[C@H](O)[C@H]3NC(C)=O)[C@H](O)[C@H]2NC(C)=O)[C@@H]1O` (stereo partly shown) [CO8, octa-N-acetyl-chitooctaose], the Kd on LYR4 was found to be 1.92 µM; at CHIP13 [1] (crystal structure at 1.35 Å: LysM2, LysM3 and bridge domain site), 0.9 µM; on CHIP13 [2], 107 ± 80 µM.
